Data from article PMC3998017, “Single cell imaging of Bruton's Tyrosine Kinase using an irreversible inhibitor” (Scientific Reports, 2014).

Target: T1, Bruton's tyrosine kinase (BTK) (Homo sapiens, UniProt Q06187)
T1 construct: purified BTK (76 kDa)
Assay: IC50 on purified BTK enzyme; also covalent labelling of purified BTK and of BTK in Toledo cells by denaturing gel fluorescence, blocked by Ibrutinib
Assay type: biochemical

T1 sequence (Q06187 2-659): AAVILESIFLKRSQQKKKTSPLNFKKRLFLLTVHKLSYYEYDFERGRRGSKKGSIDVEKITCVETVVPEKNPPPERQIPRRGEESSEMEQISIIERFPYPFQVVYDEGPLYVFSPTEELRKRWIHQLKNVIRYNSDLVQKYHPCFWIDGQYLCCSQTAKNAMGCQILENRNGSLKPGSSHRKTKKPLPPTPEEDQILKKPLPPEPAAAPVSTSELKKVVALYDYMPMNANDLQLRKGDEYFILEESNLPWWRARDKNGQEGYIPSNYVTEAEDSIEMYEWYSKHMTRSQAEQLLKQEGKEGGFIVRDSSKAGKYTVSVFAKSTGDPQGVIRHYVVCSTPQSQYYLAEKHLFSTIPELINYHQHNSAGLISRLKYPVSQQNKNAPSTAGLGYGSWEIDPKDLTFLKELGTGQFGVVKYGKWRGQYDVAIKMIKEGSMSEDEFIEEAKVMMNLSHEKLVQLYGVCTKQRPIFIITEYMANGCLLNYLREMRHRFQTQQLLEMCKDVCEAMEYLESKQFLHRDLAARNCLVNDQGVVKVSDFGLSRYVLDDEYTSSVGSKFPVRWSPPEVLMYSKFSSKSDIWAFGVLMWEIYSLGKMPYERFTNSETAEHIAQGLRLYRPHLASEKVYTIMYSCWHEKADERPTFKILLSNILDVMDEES

## Cc1cc(C)n2c1C=C1C=CC(CCC(=O)NC/C=C/C(=O)N3CCC[C@@H](n4nc(-c5ccc(Oc6ccccc6)cc5)c5c(N)ncnc54)C3)=[N+]1[B-]2(F)F [compound 7, (R,E)-3-(3-((4-(3-(4-amino-3-(4-phenoxyphenyl)-1H-pyrazolo[3,4-d]pyrimidin-1-yl)piperidin-1-yl)-4-oxobut-2-en-1-yl)amino)-3-oxopropyl)-5,5-difluoro-7,9-dimethyl-5H-dipyrrolo[1,2-c:2′,1′-f][1,3,2]diazaborinin-4-ium-5-uide]
  IC50: ~0.2 µM
